Test results taken from patent US9499535B2, “Kinase inhibitors” (ORIGENIS GMBH, priority 2011, dated 2016).

The molecules below were run against T1, SYK kinase (Homo sapiens, UniProt P43405) (assay: SYK assay (OMNIA Kinase Assay, Invitrogen)). Details: apparent Ki calculated from the IC50 using the Cheng-Prusoff equation; 1 mM ATP, 10 μM Peptide Substrate; read-out: SYK Activities: Ki.
T1 construct: purchased Invitrogen, Carlsbad
Type: biochemical
Method: In the assay OMNIA® KINASE ASSAY by Invitrogen Corporation (Carlsbad) the effect of invention of a compound on the phosphorylation is determined by measurement of fluorescence intensity of a chelation-enhanced fluorophore called SOX. Upon phosphorylation of the peptide by the kinase of interest, Mg2+ is chelated to form a bridge between the SOX moiety and the phosphate group that is transferred to the specific tyrosine on the peptide. The fluorescence intensity is directly proportional to the amount of peptide phosphorylation.
To the wells of an 384 well small volume plate (Greiner, Frickenhausen) are added (i) the compound under test in 5% DMSO/distilled water (2 μl), (ii) 16 μl of the master mix containing ATP, DTT, Kinase Reaction Buffer, Omina Peptide Substrate Tyr 7 resulting in a final concentration of 1 mM ATP, 0.2 mM DTT and 10 μM Peptide Substrate.
The Master Mix and the assay plate was incubated to reaction temperature before the measurement (30° C.). The reaction was started with addition of (iii) 2 μl 4 μg/ml SYK kinase (Invitrogen, Carlsbad). During measurement fluorescence intensitiy readings were collected using a TECAN M1000 at a wavelength of λex 360/λem 485 nm every 30 s for 30 minutes. The reaction velocity was plotted versus the inhibitor concentration to determine the IC50 using XLFit 5.0 (IDBS, Guildford) to fit to a sigmoidal dose response curve, and the apparent Ki values were calculated from the IC50 using the Cheng-Prusoff equation (Cheng, Y.; Prusoff, W. H. Biochem. Pharmacol. 22, 3099-3108, 1973).

How did the Ki turn out when `FC(F)(F)c1cccc(Nc2nc3ccccc3c3c[nH]nc23)c1` [Example #2, (2H-Pyrazolo[3,4-c]quinolin-4-yl)-(3-trifluoromethyl-phenyl)-amine] was run?
Its Ki is 100 to 1000 nM.

For `c1ccc2c(c1)nc(Nc1ccc3[nH]ncc3c1)c1n[nH]cc12` [Example #4, (1H-Indazol-5-yl)-(2H-pyrazolo[3,4-c]quinolin-4-yl)-amine], which Ki is on record?
Its Ki is 100 to 1000 nM.

With `c1ccc(Nc2nc3ccccc3c3c[nH]nc23)cc1` [Example #5, Phenyl-(2H-pyrazolo[3,4-c]quinolin-4-yl)-amine] as the molecule, how does the Ki read?
The Ki was 100 to 1000 nM.

For `c1ccc2c(c1)nc(Nc1ccc3cn[nH]c3c1)c1n[nH]cc12` [Example #6, (1H-Indazol-6-yl)-(2H-pyrazolo[3,4-c]quinolin-4-yl)-amine], which Ki is on record?
Its Ki is 10 to 100 nM.

Which Ki does the source give for `Cc1cc(Nc2nc3ccccc3c3c[nH]nc23)cc2cn[nH]c12` [Example #8, (7-Methyl-1H-indazol-5-yl)-(2H-pyrazolo[3,4-c]quinolin-4-yl)-amine] here?
The Ki was 100 to 1000 nM.

`COc1ccc2nc(Nc3cc(C)c4[nH]ncc4c3)c3n[nH]cc3c2c1` [Example #10, (8-Methoxy-2H-pyrazolo[3,4-c]quinolin-4-yl)-(7-methyl-1H-indazol-5-yl)-amine] was tested. Which Ki did it give?
The Ki was 10 to 100 nM.

With `c1ccc2c(c1)nc(Nc1ccc3[nH]cnc3c1)c1n[nH]cc12` [Example #17, (1H-Benzoimidazol-5-yl)-(2H-pyrazolo[3,4-c]quinolin-4-yl)-amine] as the molecule, how does the Ki read?
The Ki was 100 to 1000 nM.

`c1ccc2c(c1)nc(Nc1ccc3c(c1)OCO3)c1n[nH]cc12` [Example #22, Benzo[1,3]dioxol-5-yl-(2H-pyrazolo[3,4-c]quinolin-4-yl)-amine] was tested. Which Ki did it give?
The Ki was 100 to 1000 nM.

With `c1cncc(Nc2nc3ccccc3c3cn[nH]c23)c1` [Example #23, (3H-Pyrazolo[3,4-c]quinolin-4-yl)-pyridin-3-yl-amine] as the molecule, how does the Ki read?
The Ki was 100 to 1000 nM.

How did the Ki turn out when `Cn1ncc2ccc(Nc3nc4ccccc4c4c[nH]nc34)cc21` [Example #24, (1-Methyl-1H-indazol-6-yl)-(2H-pyrazolo[3,4-c]quinolin-4-yl)-amine] was run?
The Ki was 100 to 1000 nM.

With `COc1ccc(Nc2nc3ccccc3c3c[nH]nc23)cn1` [Example #25, (6-Methoxy-pyridin-3-yl)-(2H-pyrazolo[3,4-c]quinolin-4-yl)-amine] as the molecule, how does the Ki read?
The Ki was 100 to 1000 nM.

`CN1CCN(c2ccc(Nc3nc4ccccc4c4c[nH]nc34)cc2)CC1` [Example #26, [4-(4-Methyl-piperazin-1-yl)-phenyl]-(2H-pyrazolo[3,4-c]quinolin-4-yl)-amine] was tested. Which Ki did it give?
Its Ki is 100 to 1000 nM.

`CN1CCCN(c2ccc(Nc3nc4ccccc4c4c[nH]nc34)cc2)CC1` [Example #27, [4-(4-Methyl-[1,4]diazepan-1-yl)-phenyl]-(2H-pyrazolo[3,4-c]quinolin-4-yl)-amine] was tested. Which Ki did it give?
Its Ki is 100 to 1000 nM.

Which Ki does the source give for `c1ccc(Nc2nc3ccccc3c3cn[nH]c23)nc1` [Example #28, (3H-Pyrazolo[3,4-c]quinolin-4-yl)-pyridin-2-yl-amine] here?
The Ki was 100 to 1000 nM.

Which Ki does the source give for `c1ccc2cc(Nc3nc4ccccc4c4cn[nH]c34)ncc2c1` [Example #30, Isoquinolin-3-yl-(3H-pyrazolo[3,4-c]quinolin-4-yl)-amine] here?
The Ki was 100 to 1000 nM.

Which Ki does the source give for `Cn1ncc2ccc(Nc3nc4ccc(Br)cc4c4c[nH]nc34)cc21` [Example #35, (8-Bromo-2H-pyrazolo[3,4-c]quinolin-4-yl)-(1-methyl-1H-indazol-6-yl)-amine] here?
Its Ki is 100 to 1000 nM.

How did the Ki turn out when `COc1cccc(Nc2nc3ccc(OC)cc3c3c[nH]nc23)c1` [Example #60, (3-Methoxy-phenyl)-(8-methoxy-2H-pyrazolo[3,4-c]quinolin-4-yl)-amine] was run?
The Ki was 10 to 100 nM.

`COc1ccc2nc(Nc3ccc4[nH]ccc4c3)c3[nH]ncc3c2c1` [Example #72, (1H-Indol-5-yl)-(8-methoxy-3H-pyrazolo[3,4-c]quinolin-4-yl)-amine] was tested. Which Ki did it give?
The Ki was 100 to 1000 nM.

For `COc1ccc2nc(Nc3ccc4cc[nH]c4c3)c3[nH]ncc3c2c1` [Example #75, (1H-Indol-6-yl)-(8-methoxy-3H-pyrazolo[3,4-c]quinolin-4-yl)-amine], which Ki is on record?
Its Ki is 100 to 1000 nM.

How did the Ki turn out when `COc1ccc2nc(Nc3cccc(N(C)C)c3)c3n[nH]cc3c2c1` [Example #76, N-(8-Methoxy-2H-pyrazolo[3,4-c]quinolin-4-yl)-N′,N′-dimethyl-benzene-1,3-diamine] was run?
Its Ki is 100 to 1000 nM.

`COc1ccc2nc(Nc3ccc(N4CCCC4)cc3)c3n[nH]cc3c2c1` [Example #79, (8-Methoxy-2H-pyrazolo[3,4-c]quinolin-4-yl)-(4-pyrrolidin-1-yl-phenyl)-amine] was tested. Which Ki did it give?
Its Ki is 100 to 1000 nM.

`c1ccc2c(c1)nc(Nc1ccc3[nH]ccc3c1)c1n[nH]cc12` [Example #82, (1H-Indol-5-yl)-(2H-pyrazolo[3,4-c]quinolin-4-yl)-amine] was tested. Which Ki did it give?
Its Ki is 100 to 1000 nM.

Which Ki does the source give for `Brc1ccc2nc(Nc3ccc(N4CCCCC4)cc3)c3n[nH]cc3c2c1` [Example #83, (8-Bromo-2H-pyrazolo[3,4-c]quinolin-4-yl)-(4-piperidin-1-yl-phenyl)-amine] here?
The Ki was 100 to 1000 nM.

Which Ki does the source give for `COc1ccc2nc(Nc3ccc4[nH]ncc4c3)c3n[nH]cc3c2n1` [Example #90, (1H-Indazol-5-yl)-(8-methoxy-2H-2,3,5,9-tetraaza-cyclopenta[a]naphthalen-4-yl)-amine] here?
Its Ki is 100 to 1000 nM.

How did the Ki turn out when `c1cc2c(cn1)nc(Nc1ccc3cn[nH]c3c1)c1n[nH]cc12` [Example #91, (1H-Indazol-6-yl)-(2H-2,3,5,7-tetraaza-cyclopenta[a]naphthalen-4-yl)-amine] was run?
Its Ki is 10 to 100 nM.

How did the Ki turn out when `Brc1ccc2nc(Nc3ccc4[nH]ccc4c3)c3n[nH]cc3c2c1` [Example #99, (8-Bromo-2H-pyrazolo[3,4-c]quinolin-4-yl)-(1H-indol-5-yl)-amine] was run?
Its Ki is 100 to 1000 nM.

`COc1ccc2nc(Nc3ccc4c(O)ncnc4c3)c3[nH]ncc3c2c1` [Example #110, 7-(8-Methoxy-3H-pyrazolo[3,4-c]quinolin-4-ylamino)-quinazolin-4-ol] was tested. Which Ki did it give?
Its Ki is 100 to 1000 nM.

With `COc1ccc(Nc2nc3cccnc3c3c[nH]nc23)cc1OC` [Example #123, (3,4-Dimethoxy-phenyl)-(2H-2,3,5,9-tetraaza-cyclopenta[a]naphthalen-4-yl)-amine] as the molecule, how does the Ki read?
Its Ki is 10 to 100 nM.

For `COc1ccc2nc(Nc3nnc(C4CC4)[nH]3)c3n[nH]cc3c2c1` [Example #141, (5-Cyclopropyl-4H-[1,2,4]triazol-3-yl)-(8-methoxy-2H-pyrazolo[3,4-c]quinolin-4-yl)-amine], which Ki is on record?
The Ki was 100 to 1000 nM.

How did the Ki turn out when `COc1ccc2nc(Nc3ccc4c(c3)COCO4)c3n[nH]cc3c2c1` [Example #146, (4H-Benzo[1,3]dioxin-6-yl)-(8-methoxy-2H-pyrazolo[3,4-c]quinolin-4-yl)-amine] was run?
The Ki was 100 to 1000 nM.

Which Ki does the source give for `COc1ccc2nc(Nc3cc(C)ccn3)c3n[nH]cc3c2c1` [Example #154, (8-Methoxy-2H-pyrazolo[3,4-c]quinolin-4-yl)-(4-methyl-pyridin-2-yl)-amine] here?
The Ki was 100 to 1000 nM.

For `COc1ccc2nc(Nc3cc(C)cc(C)n3)c3n[nH]cc3c2c1` [Example #156, (4,6-Dimethyl-pyridin-2-yl)-(8-methoxy-2H-pyrazolo[3,4-c]quinolin-4-yl)-amine], which Ki is on record?
The Ki was 100 to 1000 nM.

Which Ki does the source give for `COc1ccc2nc(Nc3nc(C)cs3)c3n[nH]cc3c2c1` [Example #157, (8-Methoxy-2H-pyrazolo[3,4-c]quinolin-4-yl)-(4-methyl-thiazol-2-yl)-amine] here?
The Ki was 100 to 1000 nM.

Which Ki does the source give for `COc1ccc2nc(Nc3nc4c(s3)CCCC4)c3n[nH]cc3c2c1` [Example #158, (8-Methoxy-2H-pyrazolo[3,4-c]quinolin-4-yl)-(4,5,6,7-tetrahydro-benzothiazol-2-yl)-amine] here?
Its Ki is 100 to 1000 nM.
